# Source: patent US9868746B2, “Substituted 5-aminothieno[2,3-C]pyridazine-6-carboxamide analogs as positive allosteric modulators of the muscarinic acetylcholine receptor M4” (Vanderbilt University, priority 2012, dated 2018)
# pEC50: −log10 of the molar value.
# Biological target: T1, mAChR M4 (Homo sapiens, UniProt P08173)
# T1 construct: expressed in transfected cells; host or cells: CHO-K1 cells stably transfected with M4 cDNA and chimeric G-protein Gqi5
# T1 sequence (P08173 1-479): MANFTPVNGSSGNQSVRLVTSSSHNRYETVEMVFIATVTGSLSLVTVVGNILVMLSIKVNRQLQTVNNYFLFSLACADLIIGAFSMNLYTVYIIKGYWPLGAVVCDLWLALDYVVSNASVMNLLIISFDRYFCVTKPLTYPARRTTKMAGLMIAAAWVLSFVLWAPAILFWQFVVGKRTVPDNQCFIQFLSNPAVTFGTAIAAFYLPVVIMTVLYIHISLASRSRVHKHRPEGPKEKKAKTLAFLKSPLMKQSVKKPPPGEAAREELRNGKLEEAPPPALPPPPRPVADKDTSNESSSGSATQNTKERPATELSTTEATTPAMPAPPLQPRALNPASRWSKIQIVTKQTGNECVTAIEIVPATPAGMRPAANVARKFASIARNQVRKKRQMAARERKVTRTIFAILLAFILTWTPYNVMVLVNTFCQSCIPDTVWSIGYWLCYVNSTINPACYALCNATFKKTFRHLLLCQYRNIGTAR
# Experiment: mAChR M4 cell-based functional assay (calcium mobilization, potentiation of EC20 acetylcholine response)
# Details: for Emax at 30 µM: % ACh maximum at 30 μM; for pEC50: mAChR M4 cell-based functional assay, >10,000 estimated for low potency compounds without plateau, read-out: EC50
Structure (SMILES),Emax at 30 µM [%],pEC50
Cc1nnc2sc(C(=O)NC3CN(S(=O)(=O)c4cn(C)cn4)C3)c(N)c2c1C [Example B136],72,6.00
Cc1nnc2sc(C(=O)NCCN(C)C(=O)c3ccccc3)c(N)c2c1C [Example B369],25,< 5.00
Cc1nnc2sc(C(=O)NCCN3CCOCC3)c(N)c2c1C [Example B28],54,< 5.00
Cc1nnc2sc(C(=O)N3CC4CN(C(=O)CC5CCCCC5)CC4C3)c(N)c2c1C (centres unmarked) [Example B386],44,6.09
Cc1nnc2sc(C(=O)N3CC(NCc4ccncc4)C3)c(N)c2c1C [Example B60],41,< 5.00
Cc1nnc2sc(C(=O)N3CC(NS(=O)(=O)c4cccc5ncccc45)C3)c(N)c2c1C [Example B180],43,5.96
CC(=O)N1CC2CN(C(=O)c3sc4nnc(C)c(C)c4c3N)CC2C1 (centres unmarked) [Example B278],54,< 5.00
Cc1nnc2sc(C(=O)N[C@@H]3CCN(c4ccccc4)C3)c(N)c2c1C [Example B192],51,5.74
Cc1nnc2sc(C(=O)N3CCC(NC(=O)C4CCCCC4)C3)c(N)c2c1C (centres unmarked) [Example B237],62,5.47
Cc1nnc2sc(C(=O)NCc3nccs3)c(N)c2c1C [Example B11],82,5.82
Cc1nnc2sc(C(=O)NCCNC(=O)c3ccncc3)c(N)c2c1C [Example B364],49,5.41
COc1cccc(S(=O)(=O)C2CN(C(=O)c3sc4nnc(C)c(C)c4c3N)C2)c1 [Example B433],34,6.23
Cc1nnc2sc(C(=O)NCc3ccc(-c4cnn(C)c4)cc3)c(N)c2c1C [Example B447],64,< 5.00
Cc1nnc2sc(C(=O)N3CC(S(=O)(=O)c4ccc(F)c(F)c4)C3)c(N)c2c1C [Example B415],44,5.89
Cc1nnc2sc(C(=O)N3CC(F)(CCC4OCCCO4)C3)c(N)c2c1C [Example B291],46,< 5.00
Cc1nnc2sc(C(=O)N3CC(NC(=O)Oc4ccccc4)C3)c(N)c2c1C [Example B167],65,6.33
Cc1nnc2sc(C(=O)NC3CN(c4nccs4)C3)c(N)c2c1C [Example B430],58,5.68
Cc1nnc2sc(C(=O)N3CC(NC(=O)c4ccccc4)C3)c(N)c2c1C [Example B169],68,5.82
Cc1nnc2sc(C(=O)NCCNS(=O)(=O)c3ccc(F)cc3)c(N)c2c1C [Example B353],57,5.47
Nc1c(C(=O)NCc2ccncc2)sc2nnc(-c3ccccc3)c(-c3ccccc3)c12 [Example B39],40,< 5.00
Cc1nnc2sc(C(=O)NCCNS(=O)(=O)c3ccccc3)c(N)c2c1C [Example B360],52,5.60
Cc1nnc2sc(C(=O)N3CCC(NS(C)(=O)=O)C3)c(N)c2c1C (centres unmarked) [Example B256],65,< 5.00
Cc1nnc2sc(C(=O)NC3CCC3)c(N)c2c1C [Example B84],61,6.00
Cc1nnc2sc(C(=O)NCc3ccc(F)cn3)c(N)c2c1C [Example B509],59,5.85
Nc1c(C(=O)NCc2ccc3c(c2)OCO3)sc2nnccc12 [Example B22],63,5.55
Cc1nnc2sc(C(=O)NC3CN(C(=O)Oc4ccc(N=[N+]=[N-])cc4)C3)c(N)c2c1C [Example B421],84,7.82
Cc1nnc2sc(C(=O)NCc3ccc([S+]([O-])C(F)(F)F)cc3)c(N)c2c1C (centres unmarked) [Example B476],66,5.80

# Continued by rising pEC50, values first:
Emax at 30 µM [%],pEC50,Structure (SMILES)
77,6.28,CCCCCC(=O)N1CCC(NC(=O)c2sc3nnc(C)c(C)c3c2N)C1 (centres unmarked) [Example B232]
67,6.28,CC(=O)N1CC(NC(=O)c2sc3nnc(C)c(C)c3c2N)C1 [Example B134]
57,6.30,Cc1nnc2sc(C(=O)N3CC(F)(c4ccccn4)C3)c(N)c2c1C [Example B303]
43,6.40,Cc1cc(NC(=O)c2sc3nnc(C)c(C)c3c2N)ccn1 [Example B88]
73,6.41,Cc1nnc2sc(C(=O)NC3CCN(C(=O)C4CC4c4ccccc4)C3)c(N)c2c1C (centres unmarked) [Example B247]
54,6.46,Cc1nnc2sc(C(=O)N3CC(S(=O)(=O)c4ccccc4)C3)c(N)c2c1C [Example B413]
81,6.46,Cc1nnc2sc(C(=O)NC3CCN(C(=O)c4ccc(F)cc4F)C3)c(N)c2c1C (centres unmarked) [Example B228]
63,6.47,Cc1nnc2sc(C(=O)N3CC(Sc4ccc(F)c(F)c4)C3)c(N)c2c1C [Example B414]
73,6.51,Cc1nnc2sc(C(=O)NCc3cccnc3)c(N)c2c1C [Example B316]
57,6.55,Cc1nnc2sc(C(=O)NC3CCCC3)c(N)c2c1C [Example B87]
39,6.55,COc1ccc(C2CCN(C(=O)c3sc4nnc(C)c(C)c4c3N)C2)cc1 (centres unmarked) [Example B164]
71,6.57,Cc1nnc2sc(C(=O)NCc3ccc(C(F)F)nc3)c(N)c2c1C [Example B420]
59,6.62,Cc1nnc2sc(C(=O)NCc3ccnc(F)c3)c(N)c2c1C [Example B452]
60,6.62,"Cc1nnc2sc(C(=O)N[C@@H]3C[C@H]3c3ccc(S(C)(=O)=O)cc3)c(N)c2c1C (single isomer, unassigned) [Example B111]"
83,6.64,COC(=O)N1CC(NC(=O)c2sc3nnc(C)c(C)c3c2N)C1 [Example B153]
68,6.68,Cc1nnc2sc(C(=O)NC3CN(S(C)(=O)=O)C3)c(N)c2c1C [Example B80]
61,6.70,COc1ccc(C(=O)N2CC(NC(=O)c3sc4nnc(C)c(C)c4c3N)C2)c(OC)c1 [Example B161]
68,6.74,Cc1nnc2sc(C(=O)NC3CN(S(=O)(=O)c4ccoc4)C3)c(N)c2c1C [Example B100]
86,6.74,Cc1nnc2sc(C(=O)NCc3cc(F)ccc3F)c(N)c2c1C [Example B5]

Emax at 30 µM [%],pEC50,Structure (SMILES)
97,6.89,Cc1nnc2sc(C(=O)NC3CN(C(=O)C4CCCCC4)C3)c(N)c2c1C [Example B123]
67,6.92,Cc1nnc2sc(C(=O)NCc3ccc(N4CCOCC4)cc3)c(N)c2c1C [Example B327]
56,6.92,Cc1nnc2sc(C(=O)NCc3ccc(C#N)cc3)c(N)c2c1C [Example B431]
60,6.92,Cc1cccc(N2CCC(NC(=O)c3sc4nnc(C)c(C)c4c3N)C2)c1 (centres unmarked) [Example B265]
78,6.92,Cc1nnc2sc(C(=O)NC3CC3c3ccc(S(C)(=O)=O)cc3)c(N)c2c1C (centres unmarked) [Example B109]
47,7.00,Nc1c(C(=O)NCc2cccc(F)c2F)sc2nnc3c(c12)CCCC3 [Example B57]
65,7.24,Cc1cccc(S(=O)(=O)N2CC(NC(=O)c3sc4nnc(C)c(C)c4c3N)C2)c1 [Example B138]
71,7.42,Cc1nnc2sc(C(=O)NC3CCN(c4ccccc4Cl)C3)c(N)c2c1C (centres unmarked) [Example B264]
57,7.49,Cc1nnc2sc(C(=O)NC3CN(C(=O)Nc4ccc(F)cc4)C3)c(N)c2c1C [Example B351]
78,7.51,Cc1nnc2sc(C(=O)NC3CN(C(=O)c4cccs4)C3)c(N)c2c1C [Example B128]
74,7.55,Cc1nnc2sc(C(=O)NC3CN(c4nc5ccccc5o4)C3)c(N)c2c1C [Example B425]
78,7.60,COc1ncc(CNC(=O)c2sc3nnc(C)c(C)c3c2N)cc1F [Example B439]
75,7.72,"Cc1nnc2sc(C(=O)NCc3ccc(C(C)(O)C(F)(F)F)cc3)c(N)c2c1C (single isomer, unassigned) [Example B186]"
75,7.72,Cc1nnc2sc(C(=O)NCc3ccc(-c4ccncc4)cc3)c(N)c2c1C [Example B457]
66,7.77,COCOc1ccc(CNC(=O)c2sc3nnc(C)c(C)c3c2N)cc1F [Example B162]
55,7.80,Cc1nnc2sc(C(=O)NC3CN(C(=O)Oc4cccc(Cl)c4)C3)c(N)c2c1C [Example B359]
88,7.82,Cc1nnc2sc(C(=O)NCc3ccc(-c4ccc(F)nc4)cc3)c(N)c2c1C [Example B459]
69,7.92,COc1cccc(OC(=O)N2CC(NC(=O)c3sc4nnc(C)c(C)c4c3N)C2)c1 [Example B368]
